Values quoted from earlier work in patent US20240042038A1, “FORMULATIONS OF CABAZITAXEL” (Zhuhai Beihai Biotech Co., Ltd., priority 2020, published 2024).

- solubility in alcohol: soluble
- solubility in water: practically insoluble
SMILES: CO[C@H]1C(=O)[C@]2(C)[C@@H](OC)C[C@H]3OC[C@@]3(OC(C)=O)[C@H]2[C@H](OC(=O)c2ccccc2)[C@]2(O)C[C@H](OC(=O)[C@H](O)[C@@H](NC(=O)OC(C)(C)C)c3ccccc3)C(C)=C1C2(C)C [Cabazitaxel, cabazitaxel]
